Experimental data from the NIST ThermoML archive (doi:10.1016/j.jct.2007.07.005).

Experiment: xn = mol fraction of the nth substance listed
Conditions: Fluid (supercritical or subcritical phases), vibrating tube

CCCCCO [pentan-1-ol] + O=C=O
Conditions	mass density [kg/m3]
313.11 K, 24020 kPa, x2 = 0.0816	821.33
313.11 K, 25023 kPa, x2 = 0.0816	822.02
313.12 K, 10002 kPa, x2 = 0.8573	809.77
313.12 K, 10012 kPa, x2 = 0.7274	838.41
313.12 K, 11010 kPa, x2 = 0.7274	841.91
313.12 K, 11023 kPa, x2 = 0.8573	818.98
313.12 K, 11998 kPa, x2 = 0.7274	845.15
313.12 K, 12025 kPa, x2 = 0.8573	826.77
313.12 K, 13005 kPa, x2 = 0.8573	833.59
313.12 K, 13032 kPa, x2 = 0.7274	848.39
313.12 K, 14012 kPa, x2 = 0.8573	839.94
313.12 K, 14027 kPa, x2 = 0.7274	851.37
313.12 K, 15004 kPa, x2 = 0.7274	854.2
313.12 K, 15004 kPa, x2 = 0.8573	845.66
313.12 K, 15995 kPa, x2 = 0.8573	851
313.12 K, 16022 kPa, x2 = 0.7274	857
313.12 K, 17007 kPa, x2 = 0.8573	856.08
313.12 K, 17019 kPa, x2 = 0.7274	859.65
313.12 K, 18013 kPa, x2 = 0.8573	860.84
313.12 K, 18018 kPa, x2 = 0.7274	862.21
313.12 K, 19038 kPa, x2 = 0.8573	865.44
313.12 K, 19055 kPa, x2 = 0.7274	864.78
313.12 K, 19966 kPa, x2 = 0.7274	866.98
313.12 K, 20008 kPa, x2 = 0.8573	869.59
313.12 K, 21008 kPa, x2 = 0.8573	873.67
313.12 K, 21014 kPa, x2 = 0.7274	869.44
313.12 K, 22009 kPa, x2 = 0.8573	877.54
313.12 K, 22029 kPa, x2 = 0.7274	871.77
313.12 K, 23015 kPa, x2 = 0.8573	881.34
313.12 K, 23059 kPa, x2 = 0.7274	874.05
313.12 K, 23995 kPa, x2 = 0.8573	884.88
313.14 K, 5019 kPa, x2 = 0.1347	808.85
313.14 K, 6010 kPa, x2 = 0.1347	809.58
313.14 K, 7003 kPa, x2 = 0.1347	810.4
313.14 K, 8042 kPa, x2 = 0.1347	811.24
313.14 K, 9023 kPa, x2 = 0.1347	812.05
313.14 K, 10012 kPa, x2 = 0.1347	812.85
313.14 K, 11019 kPa, x2 = 0.1347	813.62
313.14 K, 12025 kPa, x2 = 0.1347	814.42
313.14 K, 13017 kPa, x2 = 0.1347	815.18
313.14 K, 14011 kPa, x2 = 0.1347	815.96
313.14 K, 15011 kPa, x2 = 0.1347	816.73
313.14 K, 16014 kPa, x2 = 0.1347	817.47
313.14 K, 17041 kPa, x2 = 0.1347	818.22
313.14 K, 18022 kPa, x2 = 0.1347	818.95
313.14 K, 19022 kPa, x2 = 0.1347	819.67
313.14 K, 20012 kPa, x2 = 0.1347	820.39
313.14 K, 21027 kPa, x2 = 0.1347	821.12
313.14 K, 22024 kPa, x2 = 0.1347	821.83
313.14 K, 23011 kPa, x2 = 0.1347	822.55
313.14 K, 24032 kPa, x2 = 0.1347	823.28
313.14 K, 25004 kPa, x2 = 0.1347	824
313.17 K, 8123 kPa, x2 = 0.6054	838.39
313.17 K, 9084 kPa, x2 = 0.6054	840.4
313.17 K, 10125 kPa, x2 = 0.6054	842.5
313.17 K, 11050 kPa, x2 = 0.6054	844.32
313.17 K, 12045 kPa, x2 = 0.6054	846.23
313.17 K, 13094 kPa, x2 = 0.6054	848.18
313.17 K, 14054 kPa, x2 = 0.6054	849.93
313.17 K, 15019 kPa, x2 = 0.6054	851.65
313.17 K, 16045 kPa, x2 = 0.6054	853.41
313.17 K, 17046 kPa, x2 = 0.6054	855.12
313.17 K, 18027 kPa, x2 = 0.6054	856.75
313.17 K, 19070 kPa, x2 = 0.6054	858.44
313.17 K, 20036 kPa, x2 = 0.6054	859.99
313.17 K, 21030 kPa, x2 = 0.6054	861.55
313.17 K, 22042 kPa, x2 = 0.6054	863.12
313.17 K, 23036 kPa, x2 = 0.6054	864.64
313.17 K, 24020 kPa, x2 = 0.6054	866.12
313.17 K, 25040 kPa, x2 = 0.6054	867.64
322.89 K, 520 kPa, x2 = 0	792.06
322.89 K, 1010 kPa, x2 = 0	792.47
322.89 K, 2005 kPa, x2 = 0	793.27
322.89 K, 3007 kPa, x2 = 0	794.07
322.89 K, 4005 kPa, x2 = 0	794.86
322.89 K, 5018 kPa, x2 = 0	795.63
322.89 K, 6001 kPa, x2 = 0	796.42
322.89 K, 7016 kPa, x2 = 0	797.2
322.89 K, 8020 kPa, x2 = 0	797.97
322.89 K, 8997 kPa, x2 = 0	798.71
322.89 K, 10001 kPa, x2 = 0	799.47
322.89 K, 11005 kPa, x2 = 0	800.21
322.89 K, 11996 kPa, x2 = 0	800.95
322.89 K, 13002 kPa, x2 = 0	801.68
322.89 K, 14013 kPa, x2 = 0	802.4
322.89 K, 15005 kPa, x2 = 0	803.11
322.89 K, 16014 kPa, x2 = 0	803.82
322.89 K, 17001 kPa, x2 = 0	804.51
322.89 K, 18016 kPa, x2 = 0	805.21
322.89 K, 19012 kPa, x2 = 0	805.89
322.89 K, 19992 kPa, x2 = 0	806.56
322.89 K, 21036 kPa, x2 = 0	807.26
322.89 K, 22003 kPa, x2 = 0	807.92
322.89 K, 23024 kPa, x2 = 0	808.61
322.89 K, 23994 kPa, x2 = 0	809.26
322.89 K, 25023 kPa, x2 = 0	810
323.05 K, 3011 kPa, x2 = 0.0816	797.79
323.05 K, 4020 kPa, x2 = 0.0816	798.67
323.05 K, 5030 kPa, x2 = 0.0816	799.53
323.05 K, 6018 kPa, x2 = 0.0816	800.37
323.05 K, 7017 kPa, x2 = 0.3624	815.3
323.05 K, 7023 kPa, x2 = 0.0816	801.2
323.05 K, 8013 kPa, x2 = 0.0816	802.02
323.05 K, 8029 kPa, x2 = 0.4651	820.04
323.05 K, 8051 kPa, x2 = 0.3624	816.51
323.05 K, 9009 kPa, x2 = 0.4651	821.63
323.05 K, 9023 kPa, x2 = 0.0816	802.84
323.05 K, 9034 kPa, x2 = 0.3624	817.64
323.05 K, 9991 kPa, x2 = 0.4651	823.23
323.05 K, 10026 kPa, x2 = 0.0816	803.67
323.05 K, 10029 kPa, x2 = 0.3624	818.77
323.05 K, 11006 kPa, x2 = 0.0816	804.46
323.05 K, 11012 kPa, x2 = 0.4651	824.81
323.05 K, 11015 kPa, x2 = 0.8067	800.23
323.05 K, 11022 kPa, x2 = 0.3624	819.83
323.05 K, 11033 kPa, x2 = 0.9757	625.72
323.05 K, 11992 kPa, x2 = 0.0816	805.23
323.05 K, 11993 kPa, x2 = 0.4651	826.28
323.05 K, 11995 kPa, x2 = 0.9757	668.32
323.05 K, 12003 kPa, x2 = 0.3624	820.86
323.05 K, 12032 kPa, x2 = 0.8067	808.05
323.05 K, 13015 kPa, x2 = 0.3624	821.9
323.05 K, 13017 kPa, x2 = 0.9757	699.41
323.05 K, 13024 kPa, x2 = 0.4651	827.83
